Measured values taken from patent publication US20160315271A1, “ORGANIC TRANSISTOR, COMPOUND, ORGANIC SEMICONDUCTOR MATERIAL FOR NON-LIGHT-EMITTING ORGANIC SEMICONDUCTOR DEVICE, MATERIAL FOR ORGANIC TRANSISTOR, COATING SOLUTION FOR NON-LIGHT-EMITTING ORGANIC SEMICONDUCTOR DEVICE, AND ORGANIC SEMICONDUCTOR FILM FOR NON-LIGHT-EMITTING ORGANIC SEMICONDUCTOR DEVICE” (FUJIFILM Corporation, priority 2014, published 2016).

Assay: Solubility in toluene
Settings: 20 mg mixed with toluene (1 mL)

Row | Solubility | SMILES
1 | A (Completely dissolved.) | CCCCCCCCCCCCc1cc2cc3ccc4cc5cc(CCCCCCCCCCCC)sc5cc4c3cc2s1 [Compound 5]
2 | A (Completely dissolved.) | CCCCCCCCc1ccc(-c2cc3cc4ccc5cc6cc(-c7ccc(CCCCCCCC)cc7)sc6cc5c4cc3s2)cc1 [Compound 11]
3 | A (Completely dissolved.) | CCCCCCCCc1ccc(-c2cc3cc4ccc5cc6cc(-c7ccc(CCCCCCCC)s7)sc6cc5c4cc3s2)s1 [Compound 16]

Row | SMILES | Solubility
4 | CCCCCCCCc1cc2cc3ccc4cc5cc(CCCCCCCC)n(C)c5cc4c3cc2n1C [Compound 3] | A (Completely dissolved.)
5 | CCCCCCCCc1csc(-c2cc3cc4ccc5cc6cc(-c7cc(CCCCCCCC)cs7)sc6cc5c4cc3s2)c1 [Compound 24] | A (Completely dissolved.)

Same assay, conditions: organic solvent or mixture, thermodynamic from solid

Row | SMILES | Solubility [mg/mL]
6 | c1ccc(-n2c3ccccc3c3cc4ccc5cc6c7ccccc7n(-c7ccccc7)c6cc5c4cc32)cc1 [compound 2, reference compound] | < 20
7 | Cc1c(C)n(-c2ccccc2)c2c1ccc1c3ccc4c(C)c(C)n(-c5ccccc5)c4c3ccc12 [compound 1, reference compound] | < 20
